Earlier results in US6235494A, “Substrates for assessing mannan-binding protein-associated serine protease activity and methods using the substrates” (The Scripps Research Institute, priority 1999, dated 2001).

How the values were obtained:
[1] = tested on: C4a
[2] = tested on: MASP
[3] = tested on: thrombin
[4] = tested on: plasmin
[5] = tested on: kallikrein (plasma and pancreatic)
[6] = tested on: Hageman factor
[7] = tested on: Factor Xa
[8] = tested on: alternative pathway
[9] = tested on: classical pathway
[10] = tested on: complement activation (C3a and C4a); settings: normal individuals
[11] = tested on: C1r
[12] = tested on: C1s
[13] = tested on: Factor B
[14] = tested on: Factor D
[15] = tested on: alternative pathway; remark: listed apart in the source
[16] = tested on: classical pathway; remark: listed apart in the source
[17] = tested on: coagulation pathway

Row | Structure (SMILES) | C4a generated upon addition of EDTA ([1]; benzamidine-containing whole blood, EDTA added) | inhibition of MASP activity [2] | MASP activity ([2]; in EDTA) | inhibition of thrombin [3] | inhibition of plasmin [4] | inhibition of kallikrein (plasma and pancreatic) [5] | effective toward Hageman factor [6] | effective toward Factor Xa [7] | inhibition of complement-mediated hemolysis by the alternative pathway [8] | inhibition of complement-mediated hemolysis by the classical pathway [9] | stabilization of freshly drawn blood samples [10] | complement proteinase target C1r [11] | complement proteinase target C1s [12] | complement proteinase target Factor B [13] | complement proteinase target Factor D [14] | C4a generated in whole blood ([1]; benzamidine added, before EDTA) | block of the alternative pathway [15] | block of the classical pathway [16] | block of the coagulation pathway [17]
1 | O=C(O)CN(CCN(CC(=O)O)CC(=O)O)CC(=O)O [EDTA, ethylened laminetetraacetic acid] | high levels of C4a are generated | – | – | – | – | – | – | – | – | – | – | – | – | – | – | – | – | – | –
2 | CS(=O)(=O)O.CS(=O)(=O)O.N=C(N)Nc1ccc(C(=O)Oc2ccc3cc(C(=N)N)ccc3c2)cc1 [Futhan, 6-amidino-2-naphthyl p-guanidinobenzoate dimethanesulfonate] | – | inhibits MASP | no MASP activity is observed | inhibits | inhibits | inhibits | sub-micromolar level | sub-micromolar level | inhibits | inhibits | effectively stabilizes freshly drawn blood samples | complement proteinase targets | complement proteinase targets | complement proteinase targets | complement proteinase targets | – | – | – | –
3 | N=C(N)c1ccccc1 [benzamidine] | – | does not inhibit MASP activity | – | – | – | – | – | – | – | – | – | – | – | – | – | no C4a generated | blocks | blocks | blocks
